Experimental data from publication PMC4062444, “Mechanisms of U87 Astrocytoma Cell Uptake and Trafficking of Monomeric versus Protofibril Alzheimer’s Disease Amyloid-β Proteins” (PLoS ONE, 2014).
Counter-ions that a name gives are not always drawn.

Experiments:
[1] = system: U87 human brain astrocytoma cell line; assay: Uptake of HiLyte Fluor555-tagged Aβ42 peptides by U87 cells (confocal microscopy); format: cell-based; details: for reduction of oAβ42 uptake by U87 cells / reduction of sAβ42 uptake by U87 cells: inhibitor pretreatment (5 mM amiloride 30 min; 300 nM wortmannin 1 h; 1 mM MβCD 30 min), integrated intracellular fluorescence vs mock-treated cells, >25 cells in each of three experiments; for reduction of oAβ42 uptake by U87 cells: then 0.4 µM HiLyte Fluor555-oAβ42 2 h at 37°C; for reduction of sAβ42 uptake by U87 cells: then 0.4 µM HiLyte Fluor555-sAβ42 2 h at 37°C; for effect of Dyn 1 dominant-negative K44A mutant on uptake: U87 cells expressing GFP-tagged Dyn1 K44A, 0.4 µM peptide 2 h at 37°C
Protocol: U87 cells were seeded on coverslips and grown at 37°C overnight in complete medium. Uptake experiments were initiated by incubating cells at 37°C with 0.4 µM HiLyte Fluor555-tagged Aβ42 peptides for 2 h, which were diluted in imaging medium (α-MEM without phenol red supplemented with 20 mM HEPES, pH 7.4, and 5% FBS). Cells were subsequently washed three times with ice-cold PBS, fixed with 3.7% PFA for 20 min and stained with 1 µg/ml DAPI diluted in PBS containing 0.1% saponin for 15 min at room temperature. Then, cells were mounted with a mounting solution containing 50% glycerol and 50% PBS. For endocytosis inhibition experiments, cells were pretreated with various endocytotic inhibitors with indicated times followed by Aβ42 peptides uptake in the presence or absence of these inhibitors.
Briefly, in most cases, the integrated intracellular signals were determined from a 2D projection image of the fluorescence intensities of a Z-stack lacking the most bottom and top planes as they mostly contain plasma membrane signals. The cell outline in each plane was determined by increasing the brightness of the image. In some cases, bright field images were also taken to help identify the cell outlines. The integrated fluorescence within the cell was background-corrected by subtraction of the fluorescence signal surrounding the cell under analysis and its value was then normalized to the mean (average) of the control cells set to 100. For plain cells in the absence or presence of various pharmacological treatment, all intact cells in each image field were used for quantification of Aβ uptake; for cells transfected with plasmids, only the positively transfected cells were used for quantification of Aβ uptake, which was estimated from the EGFP signal in green channel.

astrocytic U87 cells = details: 20 µM Aβ, cited from earlier work
Description: We assumed that U87 cells tolerated the toxic effects of Aβ42 species better than the neurons, particularly because we used relatively low concentrations of Aβ peptides, which could be rapidly cleared by U87 cells and produced negligible cellular toxicity. This property assigns a neuronal protection role to astrocytes because they can promptly clear Aβ ...

[2] = Transmission electron microscopy of oligomer preparation; format: physicochemical; details: TEM, 100 µM oAβ42, 1% uranyl acetate stain, 32,000×
Protocol: Aβ42 oligomers were applied to formvar-coated 300-mesh copper grids for 2 min and excess fluid was filtered off. The samples were then stained with 1% uranyl acetate for 1 min, excess fluid was filtered off and the grids were examined with H-8100 transmission electron microscope (Hitachi, Tokyo, Japan) operated at 150 KV and 32,000× magnification.

U87 cells [3] = system: U87 cells
Protocol: Cells were incubated in fresh DMEM containing 0.4 µM fluro-tagged Aβ42 monomers or oligomers for 2 h. After extensively wash, cells were chased in fresh completed medium with indicated times up to 72 hours. Cells were subsequently fixed, stained with DAPI and mounted as described above. Images acquisition and analysis were performed as described below.
Estimation of the half-life and rate constants for degradation of Aβ42 peptides were made by fitting data using a single-phase exponential decay equation (Origin, ver. 6.0).

U87 cells [4] = system: U87 cells; remark: listed apart in the source
Protocol: Cells maintained in the serum free medium without Aβ were used as negative control. Following addition of 20 µl MTS reagent into each well, plates were incubated at 37°C for 4 h. The formazan product was quantified by measuring absorbance at 490 nm with a Microplate Reader (Molecular Devices, Sunnyvale, CA, USA). All the experiments were repeated three times.

ThT fluorescence assay = format: physicochemical; details: 10 µM ThT in deionized water, pH 7.4; ex 450 nm, em 482 nm; Aβ42 0 to 30 µM
Protocol: The assay was performed according to a standard protocol. A 200 µM aqueous Thioflavin T (ThT) was prepared and filtered through 0.22 µm filter. For measurement, Aβ42 samples (monomers or oligomers) were prepared in 10 µM ThT/deionized water solution, pH 7.4. Immediately after mixing, ThT fluorescence of samples was measured with the excitation wavelength at 450 nm and emission wavelength at 482 nm with 470 nm cut-off by a Microplate Reader (Molecular Devices, Sunnyvale, CA, USA).

U87 cells [5] = assay: Localization of internalized Aβ42 within the endolysosomal system; format: cell-based, human; details: live-cell confocal; for fraction transported into early endosomes (EGFP-Rab5): U87 cells transfected with EGFP-Rab5, 0.4 µM peptide for 15 min, 30 min, 1 h or 2 h; for fraction localized to Lysotracker Green positive vesicles (lysosomes): U87 cells, 0.4 µM peptide for 30 min to 3 h, 50 nM LysoTracker Green
Protocol: The trafficking of fluro-tagged monomeric and oligomeric Aβ42 was measured as follows. To examine the localization in early endosomes, cells were transfected with EGFP-Rab5 plasmid to label early endosomes. 24 h after transfection, cells were treated with Aβ42 peptides for indicated time periods. After changing with the fresh imaging medium, live cell imaging was then taken using a confocal microscope with an objective heater (set at 37°C). To examine the localization of peptides in lysosomes, plain cells were first treated with Aβ42 peptides for indicated time periods, and 30 min before taking imaging, lysotracker Green were supplemented in the incubation medium (50 nM) to label lysosomes. Afterwards, fresh medium was changed and live cell imaging was taken.
Images were deconvolved using AutoQuant, a 50-pixel-wide rolling-ball subtraction algorithm was subsequently used to remove background noise. The sub-stacks of 3 sections spanning 0.4 µm were generated and imported to ImageJ for analysis. Manders’ coefficient was calculated using ImageJ plugin “JACop”. The percentage was scored as the Aβ puncta signals that are positive for EGFP-Rab5 or Lysotracker Green signals with respect to the total number of Aβ puncta.

O=C(N/N=C/c1ccc(O)c(O)c1)c1cc2ccccc2cc1O [Dynasore]
oAβ42 entry after Dynasore treatment ([1]; Dynasore pretreatment, then oAβ42 2 h at 37°C, confocal microscopy): almost entirely blocked
internalization of sAβ42 after Dynasore treatment ([1]; Dynasore pretreatment, then sAβ42 2 h at 37°C, confocal microscopy): strongly blocked

N=C(N)NC(=O)c1nc(Cl)c(N)nc1N [amiloride, Amiloride hydrochloride hydrate]
reduction of oAβ42 uptake by U87 cells [1]: 92%
reduction of sAβ42 uptake by U87 cells [1]: 61%

COC[C@H]1OC(=O)c2coc3c2[C@@]1(C)C1=C(C3=O)[C@@H]2CCC(=O)[C@@]2(C)C[C@H]1OC(C)=O [wortmannin]
reduction of oAβ42 uptake by U87 cells [1]: 37%
reduction of sAβ42 uptake by U87 cells [1]: 55%

Aβ: Aβ used by Wang et al. (ref 36, amyloid-beta1–42) on U87 cells
viability of U87 cells (astrocytic U87 cells; autophagic cell death): did decrease
apoptosis of U87 cells (astrocytic U87 cells): not induced to undergo apoptosis

Methyl-β-cyclodextrin [MβCD]
reduction of oAβ42 uptake by U87 cells [1]: 48%
reduction of sAβ42 uptake by U87 cells [1]: 46%

oAβ42: protofibril, an oligomeric assembly of Aβ42 prepared from sAβ42 at pH 2.0, 37°C, 24 h
average length of oligomers on electron micrographs [2]: < 150 nm
diameter of oligomers on electron micrographs [2]: approximately 5 nm
half-time (t0.5) of degradation in U87 cells (U87 cells [3]): 8.31 h
effect of Dyn 1 dominant-negative K44A mutant on uptake [1]: no effect
U87 cell growth / viability (U87 cells [4]): not inhibited
ThT fluorescence after titration with Aβ42 solution (ThT fluorescence assay): increased in a nearly linear-manner
fraction transported into early endosomes (EGFP-Rab5) (U87 cells [5]): low fraction
fraction localized to Lysotracker Green positive vesicles (lysosomes) (U87 cells [5]): increased with prolonged Aβ42 treating time

sAβ42: soluble monomeric HiLyte Fluor555-labeled Aβ42 (Anaspec) dissolved in 0.1% NH4OH
half-time (t0.5) of degradation in U87 cells (U87 cells [3]): 2.68 h
effect of Dyn 1 dominant-negative K44A mutant on uptake [1]: no effect
U87 cell growth / viability (U87 cells [4]): not inhibited
ThT fluorescence after titration with Aβ42 solution (ThT fluorescence assay): basal fluorescence level
fraction transported into early endosomes (EGFP-Rab5) (U87 cells [5]): low fraction
fraction localized to Lysotracker Green positive vesicles (lysosomes) (U87 cells [5]): increased with prolonged Aβ42 treating time
